Data taken from paper PMC3038857, “Using Nuclear Receptor Activity to Stratify Hepatocarcinogens” (PLoS ONE, 2011).
Read-outs that look alike come from different tables or passages of the source.

Columns and labels:
Mouse Liver = details: ref ToxRefDB, cited from earlier work
LXRa (NR1H3) = target: T1, LXRa (NR1H3) (Homo sapiens, UniProt Q13133); assay: ATG_LXRa_TRANS: Factorial reporter gene assay (HepG2); type: cell-based
T1 construct: expressed in transfected cells; host or cells: HepG2
T1 sequence (Q13133 1-447): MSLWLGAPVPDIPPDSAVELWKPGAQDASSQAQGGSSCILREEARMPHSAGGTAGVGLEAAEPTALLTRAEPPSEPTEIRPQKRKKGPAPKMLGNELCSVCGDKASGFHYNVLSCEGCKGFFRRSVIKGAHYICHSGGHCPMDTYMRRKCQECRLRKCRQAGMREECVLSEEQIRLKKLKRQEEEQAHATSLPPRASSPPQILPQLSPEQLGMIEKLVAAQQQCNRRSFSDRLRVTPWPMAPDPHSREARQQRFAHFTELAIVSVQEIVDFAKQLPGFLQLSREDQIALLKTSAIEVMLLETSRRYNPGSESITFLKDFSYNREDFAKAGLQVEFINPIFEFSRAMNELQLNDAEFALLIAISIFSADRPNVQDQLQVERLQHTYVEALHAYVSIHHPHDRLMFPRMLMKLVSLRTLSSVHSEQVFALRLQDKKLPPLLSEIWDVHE
Description: (§1) A multiple reporter transcription unit (MRTU) library consisting of 48 transcription factor binding sites was transfected into the HepG2 human liver hepatoma cell line. In addition to the cis-acting reporter genes (CIS), a modification of the approach was used to generate a trans-system (TRANS) with a mammalian one-hybrid assay consisting of an additional 25 MRTU library reporting the activity of nuclear receptor super-family members. […] These assays were performed by Attagene Inc. (Morrisville NC) under contract to EPA.
(§2) In addition to the cis-acting reporter genes (CIS), a modification of the approach was used to generate a trans-system (TRANS) with a mammalian one-hybrid assay consisting of an additional 25 MRTU library reporting the activity of nuclear receptor super-family members. […] Chemicals were then tested in the CIS and TRANS assays at seven concentrations starting at the MTC and followed by three-fold serial dilutions. These assays were performed by Attagene Inc. (Morrisville NC) under contract to EPA. Detailed description of the methods, data and analysis methods for this dataset will be presented in a separate publication.

[1] = target: T2, PPARD (peroxisome proliferator-activated receptor delta) (Homo sapiens, UniProt Q03181); assay: ATG_PPARd_TRANS: Factorial reporter gene assay (HepG2); type: cell-based; design: scale not given here; details: scale not given, looks like -log10 of molar active concentration, 0 = no activity
T2 construct: expressed in transfected cells; host or cells: HepG2
T2 sequence (Q03181 1-441): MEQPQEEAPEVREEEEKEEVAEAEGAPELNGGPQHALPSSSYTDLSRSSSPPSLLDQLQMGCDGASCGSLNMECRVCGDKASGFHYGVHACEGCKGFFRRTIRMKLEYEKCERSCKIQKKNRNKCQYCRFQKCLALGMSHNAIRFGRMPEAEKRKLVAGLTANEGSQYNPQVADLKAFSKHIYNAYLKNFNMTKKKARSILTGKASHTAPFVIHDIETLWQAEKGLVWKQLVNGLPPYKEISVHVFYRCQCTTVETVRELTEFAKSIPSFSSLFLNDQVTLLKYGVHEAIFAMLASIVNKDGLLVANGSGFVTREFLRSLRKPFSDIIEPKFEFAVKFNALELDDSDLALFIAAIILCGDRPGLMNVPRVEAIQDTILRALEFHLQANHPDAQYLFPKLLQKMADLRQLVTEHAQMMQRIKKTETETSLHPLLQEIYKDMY
Description: as §1, §2

[2] = target: T3, ESR1 (estrogen receptor 1) (Homo sapiens, UniProt P03372); assay: ATG_ERE_CIS: Factorial reporter gene assay (HepG2); type: cell-based; details: HepG2
T3 construct: expressed in transfected cells; host or cells: HepG2
How it was run: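 HepG2 cells transfected with multiplexed reporter libraries: cis-acting binding-site reporters (CIS) and a one-hybrid nuclear-receptor trans system (TRANS). Chemicals tested at seven concentrations, starting at the maximum tolerated concentration with three-fold serial dilutions.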

[3] = target: T4, ESRRG (estrogen-related receptor gamma) (Homo sapiens, UniProt P62508); assay: ATG_ERRg_TRANS: Factorial reporter gene assay (HepG2); type: cell-based; design: scale not given here
T4 construct: expressed in transfected cells; host or cells: HepG2
T4 sequence (P62508 1-458): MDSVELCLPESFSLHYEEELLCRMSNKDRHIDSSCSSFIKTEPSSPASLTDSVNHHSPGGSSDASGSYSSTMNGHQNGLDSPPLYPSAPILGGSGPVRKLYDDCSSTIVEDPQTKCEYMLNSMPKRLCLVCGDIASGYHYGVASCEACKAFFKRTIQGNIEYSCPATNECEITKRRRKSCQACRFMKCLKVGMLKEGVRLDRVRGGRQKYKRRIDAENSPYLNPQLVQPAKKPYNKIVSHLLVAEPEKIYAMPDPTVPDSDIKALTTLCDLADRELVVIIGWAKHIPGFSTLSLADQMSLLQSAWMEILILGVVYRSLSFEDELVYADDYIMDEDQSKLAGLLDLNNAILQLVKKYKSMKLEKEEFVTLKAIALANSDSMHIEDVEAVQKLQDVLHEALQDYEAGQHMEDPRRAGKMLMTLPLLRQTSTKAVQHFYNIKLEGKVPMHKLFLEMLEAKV
Description: as §1, §2

CAR (NR1I3) [4] = target: T5, CAR (NR1I3) (Homo sapiens, UniProt Q14994); assay: NVS_NR_hCAR_Agonist: Human CAR CITCO Agonist (cell-free HTS); type: biochemical; details: scale not given, looks like -log10 of molar active concentration, 0 = no activity
T5 sequence (Q14994 1-352): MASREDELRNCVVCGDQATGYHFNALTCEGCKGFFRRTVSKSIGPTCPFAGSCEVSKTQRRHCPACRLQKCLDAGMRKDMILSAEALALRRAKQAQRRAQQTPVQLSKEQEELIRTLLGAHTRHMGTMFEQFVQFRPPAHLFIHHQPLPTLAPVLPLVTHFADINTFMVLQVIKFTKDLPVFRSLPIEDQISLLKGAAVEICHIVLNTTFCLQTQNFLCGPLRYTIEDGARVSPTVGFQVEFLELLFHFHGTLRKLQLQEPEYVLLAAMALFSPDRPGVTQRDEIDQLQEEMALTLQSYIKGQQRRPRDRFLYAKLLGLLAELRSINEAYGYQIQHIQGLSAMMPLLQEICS
From the text: (§3) These are a collection of biochemical assays measuring binding constants and enzyme inhibition values. Chemicals were initially screened at a single concentration in duplicate wells at a concentration of 10 [drawing 63] M for cytochrome P-450 assays and 25 [drawing 64] M for all others. […] These assays were run by Caliper Life Sciences (Hanover, MD) under contract to EPA. Short assay descriptions are available at: http://www.caliperls.com/products/contract-research/in-vitro/.
(§4) Cell-free HTS Assays: A collection of biochemical assays measuring binding constants and enzyme inhibition values. […] These assays were run by Caliper Life Sciences (Hanover, MD) under contract to EPA. Short assay descriptions are available at http://www.caliperls.com/products/contract-research/in-vitro/. Values for all endpoints were imported into GeneData Screener (Basel, Switzerland) and normalised to solvent controls from the same plate as the tested compounds and expressed as percent of neutral control. Concentration-response curves were fit in GeneData Screener (Basel, Switzerland) Condeseo module using the Hill equation and AC50 values were determined. […] Detailed description of the methods, data and analysis methods for this dataset are described in a separate publication.

CAR (NR1I3) [5] = target: T5, CAR (NR1I3); assay: NVS_NR_hCAR: Human CAR CITCO (cell-free HTS); type: binding
From the text: as §3, §4

[6] = mouse chronic study, liver, preneoplastic lesion, coded 6 / Inf / 0, code not explained here
[7] = HepG2, scale not given, looks like -log10 of molar active concentration, 0 = no activity
[8] = scale not given, looks like -log10 of molar active concentration, 0 = no activity

T3 sequence (P03372 whole entry): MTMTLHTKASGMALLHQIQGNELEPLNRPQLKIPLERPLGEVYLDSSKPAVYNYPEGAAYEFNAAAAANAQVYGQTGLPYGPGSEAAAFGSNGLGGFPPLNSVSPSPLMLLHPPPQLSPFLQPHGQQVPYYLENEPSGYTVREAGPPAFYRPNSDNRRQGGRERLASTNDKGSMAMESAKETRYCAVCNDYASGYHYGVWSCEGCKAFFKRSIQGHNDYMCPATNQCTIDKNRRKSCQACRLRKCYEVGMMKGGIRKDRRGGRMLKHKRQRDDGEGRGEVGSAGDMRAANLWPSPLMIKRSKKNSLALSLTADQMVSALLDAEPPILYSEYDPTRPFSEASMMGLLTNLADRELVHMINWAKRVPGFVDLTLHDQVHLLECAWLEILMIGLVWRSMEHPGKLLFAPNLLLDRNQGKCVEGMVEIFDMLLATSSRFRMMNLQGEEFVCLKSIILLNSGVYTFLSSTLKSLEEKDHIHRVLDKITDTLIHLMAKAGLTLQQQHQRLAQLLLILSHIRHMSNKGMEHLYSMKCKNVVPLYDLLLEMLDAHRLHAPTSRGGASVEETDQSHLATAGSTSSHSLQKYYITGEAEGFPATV

Row | SMILES | ATG_LXRa_TRANS (LXRa (NR1H3); [7]) | ATG_PPARd_TRANS [1] | ATG_ERE_CIS [2, 8] | ATG_ERRg_TRANS [3, 7] | NVS_NR_hCAR_Agonist (CAR (NR1I3) [4]) | NVS_NR_hCAR (CAR (NR1I3) [5]; [8]) | further results
1 | CC(C)N1C(=O)c2ccccc2NS1(=O)=O [r37] | 4.357 | 0 | 0 | 0 |  |  | CHR_Mouse_Liver_2_PreneoplasticLesion (Mouse Liver; [6]): 6
2 | COc1ccc(-c2ccccc2)cc1NNC(=O)OC(C)C [r38] | 0 |  | 0 | 4.469 | 0 | 0 | CHR_Mouse_Liver_2_PreneoplasticLesion (Mouse Liver; [6]): 6
3 | CCC(C)n1c(=O)[nH]c(C)c(Br)c1=O (centres unmarked) [r43] | 0 |  | 0 | 0 | 0 | 0 | CHR_Mouse_Liver_2_PreneoplasticLesion (Mouse Liver; [6]): 6
4 | CCC(C)Nc1c([N+](=O)[O-])cc(C(C)(C)C)cc1[N+](=O)[O-] (centres unmarked) [r48] | 0 | 0 | 0 | 0 |  |  | 
5 | CC1=C(C(=O)Nc2ccccc2)SCCO1 [r53] | 0 | 0 | 0 | 0 |  |  | 
6 | CCOC(=O)C(Cl)Cc1cc(-n2nc(C)n(C(F)F)c2=O)c(F)cc1Cl (centres unmarked) [r54] | 0 | 0 | 0 |  | 0 | 0 | 
7 | Nc1cnn(-c2ccccc2)c(=O)c1Cl [r56] | 0 | 0 | 0 |  | 0 | 0 | 
8 | COc1cc(Cl)c(OC)cc1Cl [r57] | 0 |  | 0 | 0 |  |  | 
9 | CC(C)OC(=O)Nc1cccc(Cl)c1 [r59] | 0 | 0 | 0 | 0 |  |  | CHR_Mouse_Liver_2_PreneoplasticLesion (Mouse Liver; [6]): 6
10 | COc1nc(C)nc(NC(=O)NS(=O)(=O)c2ccccc2Cl)n1 [r62] | 0 |  | 0 | 0 | 0 | 0 | 
11 | COc1nc(C)nc(NC(=O)NS(=O)(=O)c2ccccc2Cl)n1 [r63] | 0 |  | 0 | 0 | 0 | 0 | 
12 | Cc1ccccc1CO[C@@H]1C[C@@]2(C(C)C)CC[C@]1(C)O2 [r64] | 4.377 | 0 |  |  | 0 | 0 | CHR_Mouse_Liver_2_PreneoplasticLesion (Mouse Liver; [6]): 6
13 | CCCC1COC(Cn2cncn2)(c2ccc(Cl)cc2Cl)O1 (centres unmarked) [r262] |  |  |  |  |  |  | CHR_Mouse_Liver_2_PreneoplasticLesion (Mouse Liver; mouse, chronic study): 6
14 | CC(C)=CC1C(C(=O)OCc2coc(Cc3ccccc3)c2)C1(C)C (centres unmarked) [r280] |  |  |  |  |  |  | CHR_Mouse_Liver_2_PreneoplasticLesion (Mouse Liver; chronic study, mouse liver): 6
15 | CCc1nn(C)c(C(=O)NCc2ccc(C(C)(C)C)cc2)c1Cl [r291] |  |  |  |  |  |  | ATG_LXRa_TRANS (LXRa (NR1H3); HepG2 reporter): 6.444; ATG_ERRg_TRANS ([3]; HepG2 reporter): 5.301
16 | CCc1cccc(C)c1N(C(=O)CCl)C(C)COC (centres unmarked) [row 208] |  |  |  |  |  |  | NVS_NR_hCAR (CAR (NR1I3) [5]): 4.462
17 | CCN(CC)C(=O)C(C)Oc1cccc2ccccc12 (centres unmarked) [row 219] |  |  |  |  |  |  | ATG_ERE_CIS [2]: 4.481
18 | CC(C)Oc1cc(-n2nc(C(C)(C)C)oc2=O)c(Cl)cc1Cl [row 225] |  |  |  |  |  |  | CHR_Mouse_Liver_2_PreneoplasticLesion (Mouse Liver; chronic mouse study, liver): 6
